Nc1cccnc1
solubility (mole fraction)
Conditions	283.15 K	288.15 K	293.15 K	298.15 K	303.15 K	308.15 K	313.15 K	318.15 K	323.15 K
in ethanol	0.438	0.476	0.518	0.566	0.612	0.66	0.71	0.764	0.821
in toluene	0.0297	0.0427	0.0646	0.0971	0.152	0.223	0.313	0.418	0.546

— BigSolDB 2.1
